From US10556865B2, “Synergistic herbicidal composition containing certain pyridine or pyrimidine carboxylic acids and certain cereal and rice herbicides” (Dow AgroSciences, LLC, priority 2007, dated 2020)

What was measured:
Format in all cases: in vivo
Scirpus species (SCPSS) = assay: Herbicidal mixtures for weed control in transplanted paddy rice (in-water application, visual % injury); settings: SCPJU
Outline: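 Weeds sown in flooded puddled mineral soil (pH ~7.3–7.8, ~1.0% organic matter) and treated at second–third true leaf stage by injecting acetone/2.5% Agri-dex stock into the paddy water. A, C and D dosed as acid equivalent, partner herbicides as active ingredient. Injury scored visually after 3 weeks in greenhouse, 0–100% versus untreated plants.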

[1] = test system: Polygonum pensylvanicum L. (POLPY); assay: Postemergence herbicidal mixtures for weed control in direct seeded rice (greenhouse, visual % injury); settings: for % Injury Ob: POLPY
[2] = test system: Ischaemum rugosum SALISB. (ISCRU); assay: as above
[3] = test system: Scirpus maritimus L. (SCPMA); assay: as above; settings: SCPMA
[4] = test system: Brachiaria platyphylla (BRISEB.) NASH (BRAPP); assay: as above
[5] = test system: Eleocharis kuroguwai OHWI (ELOKU); assay: Herbicidal mixtures for weed control in transplanted paddy rice (in-water application, visual % injury)
Outline: (§1)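 Flooded pots of puddled soil (54 percent sand, pH about 7.3 to 7.8) held weeds grown 4-14 days at about 29° C day, 26° C night. The herbicides, alone and in mixtures, were injected into the paddy water, then plants were scored visually for percent injury after 3 weeks.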

[6] = test system: Scirpus maritimus L. (SCPMA); assay: as above
Outline: as §1

| Compound | % Injury Ob (Scirpus species (SCPSS); 17.5 g/ha alone) [%] | % Injury Ob ([1]; 4.38 g/ha alone) [%] | % Injury Ob ([1]; 8.75 g/ha alone) [%] | % Injury POLPY Ob ([1]; alone 4.38 g/ha) [%] | % Injury POLPY Ob ([1]; alone 8.75 g/ha) [%] | % Injury ISCRU Ob ([2]; alone 8.75 g/ha) [%] | % Injury ISCRU Ob ([2]; alone 17.5 g/ha) [%] | % Injury Ob ([3]; 4.38 g/ha alone) [%] | % Injury Ob ([3]; 8.75 g/ha alone) [%] | % Injury Ob ([4]; 4.38 g/ha alone) [%] | % Injury Ob ([4]; 8.75 g/ha alone) [%] | % Injury Ob (Scirpus species (SCPSS); 35 g/ha alone) [%] | % Injury Ob (Scirpus species (SCPSS); 70 g/ha alone) [%] | % Injury Ob ([5]; 35 g/ha alone) [%] | % Injury Ob ([5]; 70 g/ha alone) [%] | % Injury Ob ([6]; 35 g/ha alone) [%] | % Injury Ob ([6]; 70 g/ha alone) [%] |
| --- | --- | --- | --- | --- | --- | --- | --- | --- | --- | --- | --- | --- | --- | --- | --- | --- | --- |
| COC(=O)c1nc(-c2ccc(Cl)c(OC)c2F)cc(N)c1Cl [Compound A Methyl, 4-amino-3-chloro-6-(4-chloro-2-fluoro-3-methoxyphenyl)pyridine-2-carboxylic acid methyl ester] | 90 | 10 | 50 | 50 | 60 | 50 | 55 | 0 | 10 | 60 | 60 | – | – | – | – | – | – |
| COc1c(Cl)ccc(-c2cc(N)c(Cl)c(C(=O)O)n2)c1F [Compound A TEA, 4-amino-3-chloro-6-(4-chloro-2-fluoro-3-methoxyphenyl)pyridine-2-carboxylic acid] | 60 | – | – | – | – | – | – | – | – | – | – | 85 | 95 | 30 | 20 | 0 | 50 |
